This test has as its system PDE4. In words: Inhibition of PDE4 (enzyme purified from U937 human monocytic cells). Type of test: biochemical. The following applies: 1 μM cAMP plus 10 nM [3H]-cAMP, 45 min at 30° C. On the procedure:
Phosphodiesterase 4 enzyme was purified from U937 human monocytic cells by gel filtration chromatography, and phosphodiesterase reactions were carried out as previously described. See, e.g., Muller et al., Bioorg. Med. Chem. Lett., 1998, 8(19): 2669-2674. Briefly, reactions were carried out in 96-well deep-well plates in 50 mM Tris HCl pH 7.5, 5 mM MgCl2, 1 μM cyclic adenosine monophosphate (cAMP), plus 10 nM [^3H]-cAMP for 45 min at 30° C. The reactions were terminated by boiling, treated with 1 mg/ml snake venom, and separated using AG-1X8 ion exchange resin (BioRad). Reactions consumed less than 15% of available substrate. […] Compound B inhibited PDE4 with an IC50 of 100 nM.

Several values for one entry are separate records, joined by “and”; a condition that tells them apart may be missing. Equal values may be shown once.

For `CCOc1cc([C@@H](CS(C)(=O)=O)N2C(=O)c3cccc(NC(C)=O)c3C2=O)ccc1OC` [Compound A1, (S)—N-(2-(1-(3-ethoxy-4-methoxyphenyl)-2-(methylsulfonyl)ethyl)-1,3-dioxoisoindolin-4-yl)acetamide], the IC50 was 73.5 nM and ~74 nM.

On to `CCOc1cc([C@@H](CS(C)(=O)=O)N2Cc3cccc(NC(=O)C4CC4)c3C2=O)ccc1OC` [Compound B, (S)—N-(2-(1-(3-ethoxy-4-methoxyphenyl)-2-(methylsulfonyl)ethyl)-3-oxoisoindolin-4-yl)cyclopropanecarboxamide], for which the IC50 was 100 nM and ~100 nM.

For the origin of these results see patent US9480676B2, “Use of PDE4 inhibitors and combinations thereof for the treatment of cystic fibrosis” (Celgene Corporation, priority 2014, dated 2016).
